“And” between values parts separate entries of the source, which are not always exact repeats. Equal entries are not always repeated.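 Step 1: Grow cells in 96-well plates. Step 2: Expose to compound for 48 hours at 5 concentrations. Step 3: Interpolate endpoints linearly; if unreached, use highest concentration. Here, GI50 denotes the concentration required for 50% inhibition of growth. At the TGI there is no net growth.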
Assays:
Experiment in all cases: NCI tumour cell line growth inhibition, 48 h
[1] = system: 786-0 renal
[2] = system: HCC-2998 colon
[3] = system: IGROV1 ovarian
[4] = system: M14 melanoma
[5] = system: MOLT-4 leukemia
[6] = system: NCI-H226 lung
[7] = system: NCI-H23 lung
[8] = system: OVCAR-4 ovarian
[9] = system: SF-295 CNS
[10] = system: SK-OV-3 ovarian

Compound | GI50 [1] | TGI [1] | GI50 [2] | TGI [2] | GI50 [3] | TGI [3] | GI50 [4] | TGI [4] | GI50 [5] | TGI [5] | TGI [6] | GI50 [7] | TGI [7] | TGI [8] | GI50 [9] | TGI [9] | GI50 [10] | TGI [10] | GI50 [6] | GI50 [8]
Cc1ccc2oc(=O)c3c(O)c4cccc(OC5OC(C)C6O[C@@H](c7ccccc7)OC6C5OC5OC(C)C(O)C(O)C5O)c4c4oc(=O)c1c2c34 (stereo partly drawn) | 0.0447 µM | 1.09 µM and 1.91 µM | 0.0747 µM | 1.72 µM | 0.0315 µM | 1.39 µM and 1.32 µM | 0.409 µM | 1.85 µM and 1.64 µM | 0.00436 µM and 0.0137 µM | 0.109 µM and 0.161 µM | 0.211 µM | 0.0307 µM | 0.276 µM | 3.53 µM | 0.0449 µM | 0.523 µM and 1.56 µM | 0.371 µM | 0.967 µM and 2.41 µM | – | –
COc1cc2c(cc1OC)C(C(CBr)CBr)N(C1CCCC1)CC2 (stereo not drawn) | – | > 100 µM | – | > 100 µM | – | > 100 µM | – | > 100 µM | – | > 100 µM | > 100 µM | – | > 100 µM | > 100 µM | – | > 100 µM | – | > 100 µM | – | –
CCCCCCC(=O)C/C(CCC(=O)N(Cc1ccccc1)Cc1ccccc1)=N\NC(N)=O | – | > 100 µM | – | > 100 µM | – | > 100 µM | – | > 100 µM | – | > 100 µM | > 100 µM | – | > 100 µM | > 100 µM | – | > 100 µM | – | > 100 µM | – | –
O=C1OCC2=C1C(c1cccc(C(F)(F)F)c1)c1cc3c(cc1N2CCO)OCCO3 (stereo not drawn) | 1.81 µM | > 33.3 µM | 1.1 µM | > 33.3 µM | 2.75 µM | > 33.3 µM | 0.967 µM | > 33.3 µM | 1.93 µM | > 33.3 µM | > 33.3 µM | 1.78 µM | > 33.3 µM | > 33.3 µM | 0.895 µM | > 33.3 µM | 1.29 µM | > 33.3 µM | > 33.3 µM | 6.41 µM
CN1CCN(C(=O)c2ccc(NC(=O)Nc3ccc(-c4nc(N5CCOCC5)c5cccn5n4)cc3)cc2)CC1 | 0.0632 µM | 1.11 µM | 0.0352 µM | 11.8 µM | 0.0255 µM | 1.2 µM | 0.0966 µM | 10.3 µM | 0.0443 µM | 2.11 µM | 0.345 µM | 0.0711 µM | 19 µM | 0.095 µM | 0.0322 µM | 0.239 µM | 0.0223 µM | 0.121 µM | 0.0306 µM | 0.0149 µM
CN1CCN=C1c1nnn(-c2ccc([N+](=O)[O-])cc2)c1-c1ccccc1 | – | > 100 µM | – | > 100 µM | – | > 100 µM | – | > 100 µM | – | > 100 µM | > 100 µM | – | > 100 µM | > 100 µM | – | > 100 µM | – | > 100 µM | – | –
O=C1NC(=O)C(c2cccc(Cl)c2)=C1Nc1ccc(Cl)c(C(=O)O)c1 | > 25 µM | > 25 µM | > 25 µM | > 25 µM | > 25 µM | > 25 µM | > 25 µM | > 25 µM | > 25 µM | > 25 µM | > 25 µM | > 25 µM | > 25 µM | > 25 µM | > 25 µM | > 25 µM | > 25 µM | > 25 µM | > 25 µM | > 25 µM
Cc1nc(NS(=O)(=O)c2ccc(NCN3C(=O)c4ccccc4C3=O)cc2)oc1C | > 100 µM | > 100 µM | > 100 µM | > 100 µM | > 100 µM | > 100 µM | > 100 µM | > 100 µM | > 100 µM | > 100 µM | > 100 µM | > 100 µM | > 100 µM | > 100 µM | > 100 µM | > 100 µM | > 100 µM | > 100 µM | > 100 µM | > 100 µM
C=CCC12CC(=O)CCC1c1ccc(OC)cc1C2=O (stereo not drawn) | – | > 100 µM | – | > 100 µM | – | > 100 µM | – | > 100 µM | – | > 100 µM | > 100 µM | – | > 100 µM | > 100 µM | – | > 100 µM | – | > 100 µM | – | –
Cc1ccccc1-n1c(=S)[nH]c2c(sc(=O)n2-c2ccccc2C)c1=O | – | > 100 µM | – | > 100 µM | – | > 100 µM | – | > 100 µM | – | > 100 µM | > 100 µM | – | > 100 µM | > 100 µM | – | > 100 µM | – | > 100 µM | – | –
CCN1CCN(c2cc(C(=O)Nc3cccc(Nc4ccc5c(OC)cccc5n4)c3)cc(C(F)(F)F)c2)CC1 | 3.73 µM | 7.84 µM | 0.72 µM | 2.01 µM | 0.924 µM | 5.23 µM | 0.668 µM | 1.65 µM | 0.616 µM | 12.3 µM | 25.4 µM | 3.41 µM | 8.12 µM | 9.32 µM | 0.803 µM | 2.25 µM | 4.6 µM | 11 µM | 2.85 µM | 1.57 µM
Nc1c(C(=O)c2cccc(C(O)CO)c2)cnn1-c1ccc(F)cc1 (stereo not drawn) | > 25 µM | > 25 µM | > 25 µM | > 25 µM | > 25 µM | > 25 µM | > 25 µM | > 25 µM | > 25 µM | > 25 µM | > 25 µM | > 25 µM | > 25 µM | > 25 µM | > 25 µM | > 25 µM | > 25 µM | > 25 µM | > 25 µM | > 25 µM
